Patent publication US5070210A, “Novel ketenimines as intermediates for insecticides” (ICI Americas Inc., priority 1990, dated 1991)

Assays:
Type in all cases: in vivo
[1] = tested on: Maize weevil [Sitophilus Zeamais (Motschulsky)]; experiment: Maize weevil insecticidal test; details: adult weevils, percent in solution; 48 hours
How it was run: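 LC50, in percent of compound in solution, was derived from dosage-mortality curves after 48 h at about 25 °C. Ten adult weevils per container fed on four corn seeds briefly immersed in acetone:water (50:50) solutions of up to 0.01% and dried.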

[2] = tested on: Housefly [Musca domestica]; experiment: Housefly insecticidal test; details: μg per 25 female flies; mortality after 48 hours
How it was run: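 Dry-film exposure of 25 female houseflies per cage, 48 h; LC50 as μg per 25 flies.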

[3] = tested on: Aster Leafhopper [Macrosteles fascifrens (Stal)]; experiment: Aster leafhopper insecticidal test; details: adults/nymphs, percent in solution; 48 hours
How it was run: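 LC50 values, given as percent of test compound in the dip solution, were derived from dosage-mortality curves over concentrations from 0.05% downward. Mortality was counted 48 hours after ten leafhopper adults/nymphs were enclosed on treated seedlings. The seedlings were oats, about 10 cm tall, briefly dipped in 50-50 acetone-water.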

[4] = tested on: Tobacco Budworm [Heliothis virescens (Fabricius)] eggs; experiment: Tobacco budworm egg test; details: 2-day old eggs, percent in solution
How it was run: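 Paper-towel patches of 2-day-old eggs dipped in acetone solutions of compound (0.1% downward), held on larval rearing medium at 78° F. Mortality scored once all control eggs had hatched and larvae were feeding; LC50 from dosage-mortality curves, expressed as percent compound in solution.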

[5] = tested on: Cabbage Looper [Trichoplusia ni (Hubner)]; experiment: Cabbage looper insecticidal test; details: second-instar larvae, percent in solution; 3-5 days
How it was run: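 Squash cotyledons dipped 2-3 s in compound in 50-50 acetone-water, dried, then infested with 5 second-instar larvae and held at high humidity. Mortality scored after 3-5 days at concentrations from 0.1% downward. LC50 from dosage-mortality curves, expressed as percent compound in solution.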

SMILES | LC50, MW [1] | LC50, HF [2] | LC50, LH [3] | LC50, TBW, E (TBW-E) [4] | LC50, CL [5]
CC1(C)C(C(=Nc2ccc(F)c(Cl)c2)OCc2cccc(Oc3ccccc3)c2)C1(C)C [Compound 124] | > 0.01% | 17 µg | > 0.05% | > 0.1% | 0.01%
CC(C)C(=Nc1cccc(Br)c1)OCc1cccc(Oc2ccccc2)c1 [Compound 128] | > 0.01% | 4.5 µg | 0.003% | 0.037% | 0.005%
CC(C)C(=Nc1ccccc1Br)OCc1cccc(Oc2ccccc2)c1 [Compound 132] | > 0.01% | 65 µg | > 0.05% | > 0.1% | 0.025%
CSc1ccc(N=C(OCc2cccc(Oc3ccccc3)c2)C(C)C)cc1 [Compound 142] | > 0.01% | 15 µg | > 0.05% | 0.1% | 0.005%
COc1cccc(N=C(OCc2cccc(Oc3ccccc3)c2)C(C)C)c1 [Compound 143] | > 0.01% | 10 µg | 0.006% | < 0.1% | 0.002%
COC(=O)c1ccc(N=C(OCc2cccc(Oc3ccccc3)c2)C(C)C)cc1 [Compound 151] | > 0.01% | 38 µg | > 0.05% | > 0.1% | 0.009%
CC(C)C(=Nc1ccc(C(C)(C)C)cc1)OCc1cccc(Oc2ccccc2)c1 [Compound 153] | > 0.01% | > 100 µg | 0.0005% | 0.1% | 0.004%
Cc1cccc(N=C(OCc2cccc(Oc3ccccc3)c2)C(C)C)c1 [Compound 155] | > 0.01% | 9 µg | > 0.05% | 0.06% | 0.004%
Cc1ccc(N=C(OCc2cccc(Oc3ccccc3)c2)C(C)C)cc1 [Compound 156] | > 0.01% | 10 µg | > 0.05% | 0.05% | 0.004%
COc1ccc(N=C(OCc2cccc(Oc3ccccc3)c2)C(C)C)cc1 [Compound 160] | > 0.01% | 7 µg | 0.05% | 0.09% | 0.005%
CC(C)C(=Nc1ccc(C#N)cc1)OCc1cccc(Oc2ccccc2)c1 [Compound 172] | > 0.01% | 5 µg | > 0.05% | 0.04% | 0.002%
c1ccc(Oc2cccc(COC(=Nc3ccc4c(c3)OCO4)C3CC3)c2)cc1 [Compound 177] | 0.01% | 13 µg | > 0.05% | > 0.1% | 0.002%
CCC(=Nc1ccc2c(c1)OCO2)OCc1cccc(Oc2ccccc2)c1 [Compound 178] | > 0.01% | 6 µg | > 0.05% | > 0.1% | 0.004%
CC(C)C(=Nc1ccc2c(c1)OCCO2)OCc1cccc(Oc2ccccc2)c1 [Compound 179] | > 0.01% | 13 µg | 0.005% | > 0.1% | 0.004%
CC(C)C(=Nc1ccc(-c2ccccc2)cc1)OCc1cccc(Oc2ccccc2)c1 [Compound 186] | > 0.01% | > 100 µg | > 0.05% | > 0.1% | 0.008%
CC(C)C(=Nc1ccc(Cl)cc1)OCc1cccc(Oc2ccc(F)cc2)c1 [Compound 189] | > 0.01% | 17 µg | 0.002% | 0.07% | 0.00027%
CC(C)C(=Nc1ccc(Cl)c(C(F)(F)F)c1)OCc1cccc(Oc2ccc(F)cc2)c1 [Compound 193] | > 0.01% | 100 µg | 0.001% | > 0.1% | 0.00075%
CC(C)C(=Nc1ccc(F)c(Cl)c1)OCc1cccc(Oc2ccc(F)c(F)c2)c1 [Compound 217] | 0.0084% | 8 µg | > 0.05% | 0.015% | 0.00006%
CC(C)C(=Nc1ccc2c(c1)OCO2)OCc1cccc(Oc2ccc(Cl)cc2)c1 [Compound 240] | > 0.01% | 14 µg | > 0.05% | 0.04% | 0.0003%
CC(C)C(=Nc1cccc(I)c1)OCc1cccc(Oc2ccc(F)cc2)c1 [Compound 255] | > 0.01% | 16 µg | 0.0005% | 0.075% | 0.00017%
CSc1ccc(Oc2cccc(COC(=Nc3ccc(F)c(Cl)c3)C(C)C)c2)cc1 [Compound 256] | > 0.01% | > 100 µg | > 0.05% | 0.1% | 0.007%
CC(C)C(=Nc1ccc(F)cc1)OCc1cccc(Oc2ccc(Br)cc2)c1 [Compound 259] | > 0.01% | 15 µg | > 0.05% | 0.05% | 0.0003%
CC(C)C(=Nc1cccc([N+](=O)[O-])c1)OCc1cccc(Oc2ccc(Cl)cc2)c1 [Compound 271] | > 0.01% | 27 µg | > 0.05% | 0.1% | 0.0004%
CC(C)C(=Nc1ccc(F)c([N+](=O)[O-])c1)OCc1cccc(Oc2ccccc2)c1 [Compound 293] | > 0.01% | 19 µg | > 0.05% | > 0.1% | 0.0045%
CC(C)(F)C(=Nc1ccc(F)c(Cl)c1)OCc1cccc(Oc2ccc(F)cc2F)c1 [Compound 315] | > 0.01% | > 100 µg | > 0.05% | > 0.1% | 0.002%
CC(C)(F)C(=Nc1ccc(F)c(Cl)c1)OCc1cc(Oc2ccc(F)cc2)ccc1F [Compound 316] | > 0.01% | 100 µg | > 0.05% | > 0.1% | 0.0015%
CC(C)C(=Nc1cccc(C(C)(C)C)c1)OCc1cccc(Oc2ccc(F)cc2)c1 [Compound 350] | > 0.01% | > 100 µg | > 0.05% | > 0.1% | 0.0045%
CC(C)C(=Nc1ccc(Br)cc1F)OCc1cccc(Oc2ccc(F)cc2)c1 [Compound 351] | > 0.01% | 26 µg | > 0.05% | > 0.1% | 0.0007%
